# Laboratory results as given in US4018914A, “Parturition inducement” (Abbott Laboratories, priority 1975, dated 1977).
# Like-named read-outs stand apart in the source and are kept apart here.
# Test system: pregnant rats
# Format: in vivo, rat
# Conditions: for Mean Number of Pups / Day of Parturition: pregnant rats; for Day of Parturition: number of animals at day
# Procedure: The test animals received 20 μ in two equal portions, of L-pGlu-L-His-L-Trp-L-Ser-L-Tyr-D-Leu-L-Leu-L-Arg-L-Pro-NH-ethyl as a 0.04 g/l solution in 0.9% aqueous sodium chloride containing 0.1% bovine serum albumin. In all instances, the subcutaneous injections were given on day 18 of gestation.
# In a repetition of the procedure of Example 1, the same test was carried out except that the animals were injected on day 19 of gestation.
# [1] = same dose s.c. on day 19 of gestation
smiles,measurement,setting,value
"CCNC(=O)[C@@H]1CCCN1C(=O)[C@H](CCCNC(=N)N)NC(=O)[C@H](CC(C)C)NC(=O)[C@@H](CC(C)C)NC(=O)[C@H](Cc1ccc(O)cc1)NC(=O)[C@H](CO)NC(=O)[C@H](Cc1c[nH]c2ccccc12)NC(=O)[C@H](Cc1c[nH]cn1)NC(=O)[C@@H]1CCC(=O)N1 [Test compound, L-pGlu-L-His-L-Trp-L-Ser-L-Tyr-D-Leu-L-Leu-L-Arg-L-Pro-NH-ethyl]",Mean Number of Pups,20 μ in two equal portions s.c. on day 18 of gestation,8.7
same,Day of Parturition,"20 μ in two equal portions s.c. on day 18 of gestation, normal pregnancy 21.5 days",1 at 21; 2 at 20
same,Mean Number of Pups,[1],9.3
same,Day of Parturition,[1],3 at 21
same,Condition of pups delivered,"rat, in vivo",healthy and indistinguishable from the control animals' pups
same,Parturition result at other dose levels,"rats, half and two times the dose level of example 1, compared with Table I",essentially the same result as shown in Table I
